From patent US20230265151A1, “GIP/GLP1 CO-AGONIST COMPOUNDS” (priority 2020, published 2023)
Where two headings read alike, the source gives them in different places.

Assays:
Assay type in all cases: cell-based
hGLP-1R = hGLP-1R (Homo sapiens, UniProt P43220); assay: Functional cAMP formation (HTRF) in HEK-293 clonal cells expressing hGLP-1R, 0.1% bovine casein, without or with 1.0% human serum albumin; parameters: expressed in transfected cells; details: for Emax: percent of maximal response to GLP-1(7-36)NH2; for EC50: geometric mean, read-out: hGLP-1R EC50, nM (SEM, n)
Chain of hGLP-1R (P43220 24-463): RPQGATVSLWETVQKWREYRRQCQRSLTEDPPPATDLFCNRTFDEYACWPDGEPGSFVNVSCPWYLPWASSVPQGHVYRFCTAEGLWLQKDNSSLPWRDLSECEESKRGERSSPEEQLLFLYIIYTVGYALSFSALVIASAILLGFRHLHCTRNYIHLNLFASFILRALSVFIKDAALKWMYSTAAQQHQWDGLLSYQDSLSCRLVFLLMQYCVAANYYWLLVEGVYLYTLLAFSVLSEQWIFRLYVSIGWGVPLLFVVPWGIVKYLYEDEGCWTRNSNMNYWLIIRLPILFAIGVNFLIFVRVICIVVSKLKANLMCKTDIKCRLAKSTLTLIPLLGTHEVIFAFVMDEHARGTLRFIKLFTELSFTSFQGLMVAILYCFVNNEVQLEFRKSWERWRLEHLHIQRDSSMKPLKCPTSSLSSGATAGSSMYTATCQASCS
Summary of the method: (§1)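 Cells were stimulated with peptide for 30 min at 37° C, then intracellular cAMP was measured by competitive HTRF (665/620 nm ratio) and converted to nM using a cAMP standard curve. Relative EC50 and Emax came from four-parameter logistic fits of percent maximal response against peptide concentration.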

hGCGR = target: T1, hGCGR (Homo sapiens, UniProt P47871); assay: Functional cAMP formation (HTRF) in HEK-293 clonal cells expressing hGCGR, 0.1% bovine casein, without or with 1.0% human serum albumin; details: geometric mean
T1 construct: expressed in transfected cells
T1 sequence (P47871 26-477): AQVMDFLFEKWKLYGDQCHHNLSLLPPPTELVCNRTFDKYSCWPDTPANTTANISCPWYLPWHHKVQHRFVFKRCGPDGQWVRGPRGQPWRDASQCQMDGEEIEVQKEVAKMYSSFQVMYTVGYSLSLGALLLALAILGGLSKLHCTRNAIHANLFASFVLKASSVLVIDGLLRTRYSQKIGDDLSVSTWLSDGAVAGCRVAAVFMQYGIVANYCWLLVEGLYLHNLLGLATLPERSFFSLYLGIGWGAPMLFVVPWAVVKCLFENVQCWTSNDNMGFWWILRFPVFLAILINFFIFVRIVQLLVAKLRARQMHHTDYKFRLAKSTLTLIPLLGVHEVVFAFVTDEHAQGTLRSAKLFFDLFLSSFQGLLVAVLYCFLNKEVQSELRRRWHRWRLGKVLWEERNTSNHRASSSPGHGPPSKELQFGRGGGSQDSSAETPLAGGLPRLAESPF
Summary of the method: as §1

hGIPR = target: T2, hGIPR (Homo sapiens, UniProt P48546); assay: Functional cAMP formation (HTRF) in HEK-293 clonal cells expressing hGIPR, 0.1% bovine casein, without or with 1.0% human serum albumin; details: for EC50: geometric mean; for Emax: read-out: hGIPR Emax, % ± SEM
T2 construct: expressed in transfected cells
T2 sequence (P48546 22-466): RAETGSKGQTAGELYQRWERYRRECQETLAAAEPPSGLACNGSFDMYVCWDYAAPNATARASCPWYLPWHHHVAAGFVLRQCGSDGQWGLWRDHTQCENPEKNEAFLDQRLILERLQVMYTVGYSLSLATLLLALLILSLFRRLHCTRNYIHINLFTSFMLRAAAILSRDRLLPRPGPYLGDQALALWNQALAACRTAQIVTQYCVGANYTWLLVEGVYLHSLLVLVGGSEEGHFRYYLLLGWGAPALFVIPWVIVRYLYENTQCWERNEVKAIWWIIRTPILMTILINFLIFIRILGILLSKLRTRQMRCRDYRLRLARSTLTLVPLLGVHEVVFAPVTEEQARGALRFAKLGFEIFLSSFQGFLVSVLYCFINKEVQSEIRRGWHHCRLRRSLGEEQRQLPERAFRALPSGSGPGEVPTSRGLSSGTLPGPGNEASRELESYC
Summary of the method: as §1

[1] = 0.1% bovine casein and 1.0% human serum albumin, 37° C.
[2] = cAMP, incubated at 37° C., 0.1% bovine casein (no human serum albumin)
[3] = 0.1% bovine casein and 1.0% human serum albumin, 37° C., read-out: hGCGR EC50, nM (SEM, n)
[4] = cAMP, incubated at 37° C., 0.1% bovine casein (no human serum albumin), read-out: hGCGR EC50, nM (SEM, n)
[5] = 0.1% bovine casein and 1.0% human serum albumin, 37° C., read-out: hGIPR EC50, nM (SEM, n)
[6] = HEK293, 0.1% bovine casein and 1.0% human serum albumin, 37° C., percent of maximal response to GIP(1-42)NH2
[7] = cAMP, incubated at 37° C., 0.1% bovine casein (no human serum albumin), read-out: hGIPR EC50, nM (SEM, n)

Structure (SMILES) | Emax (hGLP-1R; HEK293, read-out: hGLP-1R Emax, % ± SEM, 0.1% bovine casein and 1.0% human serum albumin, 37° C.) | Emax (hGLP-1R; HEK293, read-out: hGLP-1R Emax, % ± SEM, cAMP, 37° C., 0.1% bovine casein, arithmetic mean) | EC50 (hGCGR; hGCGR EC50, nM (SEM, n), 0.1% bovine casein and 1.0% human serum albumin, 37° C.) | EC50 (hGCGR; hGCGR EC50, nM (SEM, n), cAMP, 37° C., 0.1% bovine casein (no human serum albumin)) | EC50 (hGIPR; hGIPR EC50, nM (SEM, n), 0.1% bovine casein and 1.0% human serum albumin, 37° C.) | EC50 (hGLP-1R; [1]) | EC50 (hGLP-1R; [2]) | EC50 (hGCGR; [3]) | EC50 (hGCGR; [4]) | EC50 (hGIPR; [5]) | Emax (hGIPR; [6]) | Emax (hGIPR; HEK293, percent of maximal response to GIP(1-42)NH2, 37° C., 0.1% bovine casein, arithmetic mean) | EC50 (hGIPR; [7]) | Emax (hGLP-1R; HEK293, 0.1% bovine casein and 1.0% human serum albumin, 37° C., read-out: hGLP-1R Emax, % ± SEM) | Emax (hGLP-1R; HEK293, cAMP, 37° C., 0.1% bovine casein, arithmetic mean, read-out: hGLP-1R Emax, % ± SEM) | EC50 (hGCGR; cAMP, 37° C., 0.1% bovine casein (no human serum albumin), read-out: hGCGR EC50, nM (SEM, n)) | Emax (hGIPR; HEK293, cAMP, 37° C., 0.1% bovine casein, percent of maximal response to GIP(1-42)NH2, arithmetic mean) | EC50 (hGIPR; cAMP, 37° C., 0.1% bovine casein (no human serum albumin), read-out: hGIPR EC50, nM (SEM, n))
CC[C@H](C)[C@H](NC(=O)[C@H](CCCN)NC(=O)[C@H](CC(=O)O)NC(=O)[C@H](CC(C)C)NC(=O)[C@](C)(CC(C)C)NC(=O)[C@@H](NC(=O)[C@H](CO)NC(=O)[C@H](Cc1ccncc1)NC(=O)[C@H](CC(=O)O)NC(=O)[C@H](CO)NC(=O)[C@@H](NC(=O)[C@](C)(Cc1ccccc1F)NC(=O)[C@@H](NC(=O)CNC(=O)[C@H](CCC(=O)O)NC(=O)C(C)(C)NC(=O)[C@@H](N)Cc1ccc(O)cc1)[C@@H](C)O)[C@@H](C)O)[C@@H](C)CC)C(=O)N[C@@H](C)C(=O)N[C@@H](CCC(N)=O)C(=O)NC(C)(C)C(=O)N[C@@H](CCC(=O)O)C(=O)N[C@@H](Cc1ccccc1)C(=O)N[C@H](C(=O)N[C@@H](CCCCNC(=O)COCCOCCNC(=O)COCCOCCNC(=O)CC[C@H](NC(=O)CCCCCCCCCCOc1ccc(C(=O)O)cc1)C(=O)O)C(=O)N[C@@](C)(Cc1ccc(O)cc1)C(=O)N[C@@H](CC(C)C)C(=O)N[C@H](C(=O)N[C@@H](CCCCNC(=O)COCCOCCNC(=O)COCCOCCNC(=O)CC[C@H](NC(=O)CCCCCCCCCCOc1ccc(C(=O)O)cc1)C(=O)O)C(=O)NCC(=O)NCC(=O)N1CCC[C@H]1C(=O)N[C@@H](CO)C(=O)N[C@@H](CO)C(=O)NCC(=O)N[C@@H](C)C(=O)N1CCC[C@H]1C(=O)N1CCC[C@H]1C(=O)N1CCC[C@H]1C(=O)N[C@@H](CO)C(N)=O)[C@@H](C)CC)[C@@H](C)CC [Example 286] | 90.3% | 110% | > 9950 nM | > 9950 nM | 2.18 nM | – | – | – | – | – | – | – | – | – | – | – | – | –
CC[C@H](C)[C@H](NC(=O)[C@H](CCCN)NC(=O)[C@H](CC(=O)O)NC(=O)[C@H](CC(C)C)NC(=O)[C@](C)(CC(C)C)NC(=O)[C@@H](NC(=O)[C@H](CO)NC(=O)[C@H](Cc1ccncc1)NC(=O)[C@H](CC(=O)O)NC(=O)[C@H](CO)NC(=O)[C@@H](NC(=O)[C@](C)(Cc1ccccc1F)NC(=O)[C@@H](NC(=O)CNC(=O)[C@H](CCC(=O)O)NC(=O)C(C)(C)NC(=O)[C@@H](N)Cc1ccc(O)cc1)[C@@H](C)O)[C@@H](C)O)[C@@H](C)CC)C(=O)N[C@@H](C)C(=O)N[C@@H](CCC(N)=O)C(=O)NC(C)(C)C(=O)N[C@@H](CCCCNC(=O)COCCOCCNC(=O)COCCOCCNC(=O)CCCCCCCCCCCCC(=O)O)C(=O)N[C@@H](Cc1ccccc1)C(=O)N[C@H](C(=O)N[C@H](CCC(=O)O)C(=O)N[C@@](C)(Cc1ccc(O)cc1)C(=O)N[C@@H](CC(C)C)C(=O)N[C@H](C(=O)N[C@@H](CCC(=O)O)C(=O)NCC(=O)NCC(=O)N[C@@H](CCCCNC(=O)COCCOCCNC(=O)COCCOCCNC(=O)CCCCCCCCCCCCC(=O)O)C(=O)N[C@@H](CO)C(=O)N[C@@H](CO)C(=O)NCC(=O)N[C@@H](C)C(=O)N1CCC[C@H]1C(=O)N1CCC[C@H]1C(=O)N1CCC[C@H]1C(=O)N[C@@H](CO)C(N)=O)[C@@H](C)CC)[C@@H](C)CC [Example 195] | – | – | – | – | – | 14 nM | 0.343 nM | > 9950 nM | > 9950 nM | 0.771 nM | 87 ± 12.2% | 88.5 ± 4.32% | 0.0219 nM | – | – | – | – | –
CCCCCCCCCCCC(=O)N[C@@H](CCC(=O)NCCOCCOCC(=O)NCCOCCOCC(=O)NCCCC[C@H](NC(=O)[C@H](CCCN)NC(=O)[C@H](CC(=O)O)NC(=O)[C@H](CC(C)C)NC(=O)[C@](C)(CC(C)C)NC(=O)[C@@H](NC(=O)[C@H](CO)NC(=O)[C@H](Cc1ccc(OC)cc1)NC(=O)[C@H](CC(=O)O)NC(=O)[C@H](CO)NC(=O)[C@@H](NC(=O)[C@](C)(Cc1ccccc1F)NC(=O)[C@@H](NC(=O)CNC(=O)[C@H](CCC(=O)O)NC(=O)C(C)(C)NC(=O)[C@@H](N)Cc1ccc(O)cc1)[C@@H](C)O)[C@@H](C)O)[C@@H](C)CC)C(=O)N[C@@H](C)C(=O)N[C@@H](CCC(N)=O)C(=O)NC(C)(C)C(=O)N[C@@H](CCCCNC(=O)COCCOCCNC(=O)COCCOCCNC(=O)CC[C@H](NC(=O)CCCCCCCCCCC)C(=O)O)C(=O)N[C@@H](Cc1ccccc1)C(=O)N[C@H](C(=O)N[C@H](CCC(=O)O)C(=O)N[C@@](C)(Cc1ccc(O)cc1)C(=O)N[C@@H](CC(C)C)C(=O)N[C@H](C(=O)N[C@@H](CCC(=O)O)C(=O)NCC(=O)NCC(=O)N1CCC[C@H]1C(=O)N[C@@H](CO)C(=O)N[C@@H](CO)C(=O)NCC(=O)N[C@@H](C)C(=O)N1CCC[C@H]1C(=O)N1CCC[C@H]1C(=O)N1CCC[C@H]1C(=O)N[C@@H](CO)C(N)=O)[C@@H](C)CC)[C@@H](C)CC)C(=O)O [Example 289] | – | – | – | – | – | – | – | > 9950 nM | – | – | 94.9% | – | – | 170% | 96.7% | > 9950 nM | 111% | 0.017 nM
CC[C@H](C)[C@H](NC(=O)[C@H](CCCN)NC(=O)[C@H](CC(=O)O)NC(=O)[C@H](CC(C)C)NC(=O)[C@](C)(CC(C)C)NC(=O)[C@@H](NC(=O)[C@H](CO)NC(=O)[C@H](Cc1ccncc1)NC(=O)[C@H](CC(=O)O)NC(=O)[C@H](CO)NC(=O)[C@@H](NC(=O)[C@](C)(Cc1ccccc1F)NC(=O)[C@@H](NC(=O)CNC(=O)[C@H](CCC(=O)O)NC(=O)C(C)(C)NC(=O)[C@@H](N)Cc1ccc(O)cc1)[C@@H](C)O)[C@@H](C)O)[C@@H](C)CC)C(=O)N[C@@H](C)C(=O)N[C@@H](CCC(N)=O)C(=O)NC(C)(C)C(=O)N[C@@H](CCC(=O)O)C(=O)N[C@@H](Cc1ccccc1)C(=O)N[C@H](C(=O)N[C@@H](CCCCNC(=O)[C@@H](N)CCCCNC(=O)CC[C@H](NC(=O)CCCCCCCCCCCCC(=O)O)C(=O)O)C(=O)N[C@@](C)(Cc1ccc(O)cc1)C(=O)N[C@@H](CC(C)C)C(=O)N[C@H](C(=O)N[C@@H](CCC(=O)O)C(=O)NCC(=O)NCC(=O)N[C@@H](CCCCNC(=O)[C@@H](N)CCCCNC(=O)CC[C@H](NC(=O)CCCCCCCCCCCCC(=O)O)C(=O)O)C(=O)N[C@@H](CO)C(=O)N[C@@H](CO)C(=O)NCC(=O)N[C@@H](C)C(=O)N1CCC[C@H]1C(=O)N1CCC[C@H]1C(=O)N1CCC[C@H]1C(=O)N[C@@H](CO)C(N)=O)[C@@H](C)CC)[C@@H](C)CC [Example 197] | – | – | – | – | – | 26.2 nM | 0.336 nM | > 9950 nM | > 9950 nM | 2.06 nM | 84.5 ± 4.08% | – | 0.0338 nM | – | – | – | – | –
